# “Also recorded” adds a separate entry of the source.
# T1: M1 receptor (Homo sapiens, UniProt P11229)
# T1 sequence (P11229 1-460): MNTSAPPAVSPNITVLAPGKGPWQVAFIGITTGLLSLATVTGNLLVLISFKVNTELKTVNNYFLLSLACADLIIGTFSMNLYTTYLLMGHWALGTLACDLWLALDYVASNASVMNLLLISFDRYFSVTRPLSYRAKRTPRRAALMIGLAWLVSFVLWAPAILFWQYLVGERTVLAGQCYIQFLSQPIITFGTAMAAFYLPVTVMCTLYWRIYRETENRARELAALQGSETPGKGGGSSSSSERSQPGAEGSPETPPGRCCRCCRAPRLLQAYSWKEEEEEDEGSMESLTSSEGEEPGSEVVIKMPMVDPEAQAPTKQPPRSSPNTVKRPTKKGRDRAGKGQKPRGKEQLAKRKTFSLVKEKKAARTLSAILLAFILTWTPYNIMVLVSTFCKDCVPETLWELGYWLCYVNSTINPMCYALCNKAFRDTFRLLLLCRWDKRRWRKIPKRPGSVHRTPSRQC
# B1: MT7: 64-66 amino acid protein derived from the African green mamba snake; most specific antagonist of the M1 receptor (protein, UniProt Q8QGR0 22-86, looked up)
# Muscarinic toxin 7: LTCVKSNSIWFPTSEDCPDGQNLCFKRWQYISPRMYDFTRGCAATCPKAEYRDVINCCGTDKCNK
# What was measured:
# PGC-1α = PGC-1α transcriptional activity, luciferase reporter in adult sensory neurons; format: cell-based, rat
# Description: PGC-1α transcriptional activity was determined in dissociated adult sensory neurons derived from STZ-induced diabetic rats by transfection for two days with luciferase-based reporter plasmids by following the methods taught in the AMAXA® NUCLEOFECTOR® II Manual (www.amaxa.com; AMAX and NUCLEOFECTOR are registered trademarks of Amaxa GmBH Corp., Koln, Fed. Rep. Germany) and by Saleh et al. (2013, Ciliary neurotrophic factor activates NF-κB to enhance mitochondrial bioenergetics and prevent neuropathy in sensory neurons of streptozotocin-induced diabetic rodents. Neuropharmacology 65:65-75) (the luciferase-based reporter plasmids were a gift from Dr. Michael Czubryt, University of Manitoba).
# [1] = system: AMP-activated protein kinase (AMPK); assay: AMPK phosphorylation (Western blot) in cultured adult sensory neurons; format: cell-based, rat; details: neurons from age-matched control rats
# Description: Subsets of cultured adult sensory neurons derived from age-matched control rats or 3-5 month STZ-induced diabetic rats were treated with a 1.0 μM pirenzepine-HCl dosage. The first subset was processed immediately while the second, third and fourth subsets of the neurons from the control rats and the diabetic rats were processed after 15 min, after 30 min, and after 60 min respectively following treatment with pirenzepine. The cell cultures were lysed and then used to prepare Western blots which were then probed with antibodies against phosphorylated AMPK (P-AMPK), total AMPK (T-AMPK) and total ERK (T-ERK). […] Values are means±SEM, N=3/group. Statistical significance was analyzed using one-way ANOVA with Tukey's post-hoc test.
# [2] = system: cultured adult rat sensory neurons; assay: Total neurite outgrowth in cultured adult sensory neurons; format: cell-based; details: for total neurite outgrowth: cultured adult sensory neurons from normal adult rodents
# Description: The fundamental hypothesis is that blocking endogenous cholinergic constraint using a muscarinic receptor antagonist will promote re-growth of neurons in patients with established peripheral neuropathy. This occurs via activation of AMPK and PGC-1α and the subsequent augmentation of mitochondrial function. This pathway comprises a proximal step involving M1 receptor antagonist-dependent activation of CaMKKβ (or CaMKK2). This hypothesis is supported by extensive preclinical data using in vitro and in vivo model systems. […] A specific requirement for M1 receptor antagonism is confirmed by the increased neurite outgrowth from sensory neurons derived from M1R KO mice.
# The highly specific M1 receptor antagonist, MT7 (muscarinic toxin 7), enhanced neurite outgrowth in cultured adult rat sensory neurons (FIGS. 9(A), 9(B), 10). The data in FIG. 10 are means±SEM of 9 replicate cultures. Significant differences were determined by one-way ANOVA with Dunnett's post-hoc test.
# [3] = system: STZ-induced diabetic Swiss Webster mice; assay: Topical atropine (eye or paw) in STZ-induced diabetic Swiss Webster mice; format: in vivo, mouse; details: 5 days/wk, 12 weeks
# Description: Groups of adult Swiss Webster mice were made diabetic with STZ and then treated 5 days/wk with atropine delivered topically to one eye (2% solution) or topically to one paw (2% gel) for 12 weeks. Measurements were made on both the treated and untreated hind paw. Indices of large motor fiber function (MNCV; FIG. 21) and sensory sensory fiber function (paw thermal latency; FIG. 22) were measured and compared to those of age-matched control mice that were treated in an equivalent manner. […] The data shown in FIGS. 21 and 22 are group means±SEM with N=6-10/group. Significant differences were determined by unpaired t-test to compare control and diabetic animals under each condition (vehicle, atropine to the eye, atropine to the foot).
# [4] = system: adult sensory neurons from normal rats; assay: Neurite outgrowth of sensory neurons exposed to paclitaxel or oxaliplatin; format: cell-based, rat; details: 24 hours; paclitaxel 0.1 or 0.3 μM, oxaliplatin 3.0 μM
# Description: Adult sensory neurons from normal rats were cultured for 24 hours in the presence of(A) paclitaxel (PX; 0.1 μM or 0.3 μM), or (B) oxaliplatin (OX; 3.0 μM). From time of plating some cultures were treated with 0.1, 1.0 or 10 μM pirenzepine (PZ). Levels of total neurite outgrowth were determined and presented as means±SEM, N=6-8/group. Significant differences were assessed in(A) by t-test, and in(B) by one-way ANOVA with Dunnett's post-hoc test.
# db/db mice = assay: Topical oxybutynin in db/db mouse model of type 2 diabetes; format: in vivo
# Description: The muscarinic receptor antagonist oxybutynin was tested for efficacy against a functional measure of sensory neuropathy in the db/db mouse model of type 2 diabetes (FIG. 15). Thermal latency was analyzed as taught by Calcutt et al. (2004, Prevention of sensory disorders in diabetic Sprague-Dawley rats by aldose reductase inhibition or treatment with ciliary neurotrophic factor. Diabetologia 47:718-24). […] Some diabetic mice were then treated with oxybutynin (Oxy: 2% in hydrogel) applied to the right paw for 20 min/day 5 days a week, while others were treated with hydrogel vehicle alone. […] Data are group mean±SEM of N=8-9/group.
# IENF levels were quantified as taught by Beiswenger et al. (2008, Epidermal nerve fiber quantification in the assessment of diabetic neuropathy. Acta Histochem. 110:351-63). The data shown in FIG. 16(A) are group mean±SEM of N=6-8/group. Significant differences were determined with a oneway ANOVA followed by Dunnett's post-hoc test. […] After 8 weeks of topical oxybutynin treatment, the eyes were assessed using corneal confocal microscopy as taught by Chen et al. (2013, Repeated monitoring of corneal nerves by confocal microscopy as an index of peripheral neuropathy in type-1 diabetic rodents and the effects of topical insulin. J. Periph. Nerv. Syst. 18;306-315).
# [5] = system: STZ-induced diabetic Swiss Webster mice; assay: Systemic oxybutynin in STZ-induced diabetic Swiss Webster mice, thermal hypoalgesia; format: in vivo, mouse; details: 9 weeks after 8 weeks of untreated diabetes
# adult Swiss Webster mice = assay: Corneal nerve occupancy by confocal microscopy in normal mice given MT7 eye drops; format: in vivo, mouse; details: daily eye drops; day 11 vs day 2, p<0.05
# Description: To further extend our investigation of the actions of muscarinic receptor antagonists on nerve growth, we treated normal mice with the M1 receptor-specific antagonist MT7 by daily delivery to the eyes for 11 days and used confocal microscopy to provide a non-invasive and therefore iterative assessment of corneal nerve density.
# A group (n=8) of adult Swiss Webster mice received daily treatment with MT7, which was given by eye drops (20 μl volume) in saline. Nerve occupancies in the sub-basal nerve plexus (SBNP 1-5) and upper stromal (Stroma 1-10) regions of the cornea were measured on day 2 and day 11 of treatment (FIG. 23). […] Data are group means (N=8)±SEM.
# [6] = system: cultured adult rat sensory neurons; format: cell-based; details: gp120 24 hours; not shown
# Description: To further extend our investigation of the actions of muscarinic receptor antagonists on nerve growth, cultured adult rat sensory neurons were treated for 24 hours with recombinant gp120, an external coat protein of HIV that causes toxicity to sensory neurons in HIV neuropathy (FIG. 24). This toxicity leads to axon degeneration and neuronal cell death. Cultures were treated with 1 μM pirenzpeine and total neurite outgrowth determined. […] Values are means±SEM. n=6.
# M1 receptor = biological target: T1, M1 receptor; details: cited from earlier work
# [7] = 2% solution topically to one eye
# [8] = topical, 8 weeks, values not significantly different from controls
molecule,measurement,setting,value
c1cc(-c2cnn3cc(-c4ccc(OCCN5CCCCC5)cc4)cnc23)ccn1 [Compound C],effect on MT7 stimulation of PGC-1α transcription,PGC-1α; 0.3μM co-treatment with MT7,blocked
O=C(O)c1ccc2c3c1cccc3c(=O)n1c3ccccc3nc21 [STO-609],effect on MT7-induced enhancement of AMPK phosphorylation,[1]; 1.0μM,inhibited
same,effect on pirenzepine-induced enhancement of AMPK phosphorylation,[1]; 1.0μM,inhibited
same,effect on pirenzepine-induced neurite outgrowth,[2]; cultured adult rat sensory neurons,dose-dependently inhibited
CN1[C@@H]2CC[C@H]1C[C@@H](OC(=O)C(CO)c1ccccc1)C2 (stereo partly drawn) [atropine],large fiber MNCV,[3]; 2% gel topically to one paw,not different to controls
same,paw thermal hypoalgesia (paw thermal latency),[3]; 2% gel topically to one paw,not different to controls
same,large fiber MNCV,[3]; [7],not different to controls
same,paw thermal hypoalgesia (paw thermal latency),[3]; [7],not different to controls
O=C1[O][Pt]2([NH][C@@H]3CCCC[C@H]3[NH]2)[O]C1=O [oxaliplatin],neurite outgrowth of sensory neurons exposed in vitro to the chemotherapeutic,[4],reduced neurite outgrowth
"CCN(CC)CC#CCOC(=O)C(O)(c1ccccc1)C1CCCCC1 (stereo not drawn) [oxybutynin, 4-dicthylaminobut-2-ynyl-2-cyclohexyl-2-hydroxy-2-phenyl-ethanoate]",total neurite outgrowth,[2],elevated
same,paw thermal hypoalgesia (thermal latency),"db/db mice; 2% in hydrogel to right paw 20 min/day, 5 days a week, 8 weeks, p<0.01 vs vehicle",reversed
same,time of treatment to reversal of thermal hypoalgesia,db/db mice; topical oxybutynin,4-8 weeks
same,reduction in density of IENF in paw skin,db/db mice; [8],attenuated
same,reduction in nerve fiber occupancy in the cornea,db/db mice; [8],attenuated
same,thermal hypoalgesia,[5]; 3 mg/kg s.c.,able to reverse
same,thermal hypoalgesia,[5]; 10 mg/kg s.c.,able to reverse
B1,AMPK phosphorylation,[1]; MT7,enhancement
same,transcription of PGC-1α,"PGC-1α; MT7 treatment, neurons from STZ-induced diabetic rats",activated
same,total neurite outgrowth,[2],enhanced; also recorded: dose-dependently elevated
same,nerve occupancy in the sub-basal nerve plexus (SBNP 1-5) of the cornea,adult Swiss Webster mice,increased significantly
same,nerve occupancy in the upper stromal (Stroma 1-10) region of the cornea,adult Swiss Webster mice,increased significantly
same,level of protection from gp120 treatment,[6],approximately 50%
same,concentrations at which it binds to an allosteric site on the M1 receptor,M1 receptor; allosteric site,low nanomolar
same,selectivity for M1 receptors over M2-M5,M1 receptor,"10,000 fold"
